Assay results taken from patent US10717750B2, “68Ga-labeled NOTA-chelated PSMA-targeted imaging and therapeutic agents” (THE JOHNS HOPKINS UNIVERSITY, priority 2009, dated 2020).
pKi: −log10 of the molar value. Entries after “also recorded” stand apart in the source; their conditions may differ. Where two headings read alike, the source gives them in different places. Each block holds one compound with its values, some of them ahead of it.

Columns and labels:
PSMA = biological target: T1, PSMA (Homo sapiens, UniProt Q04609); test: PSMA inhibition assay (fluorescence-based, NAAG hydrolysis, Amplex Red); type: biochemical; details: for pKi: lysates of LNCaP cell extracts, 4 μM NAAG, Cheng-Prusoff conversion
T1 construct: endogenous in cells; host or cells: LNCaP cell lysate
T1 sequence (Q04609 whole entry): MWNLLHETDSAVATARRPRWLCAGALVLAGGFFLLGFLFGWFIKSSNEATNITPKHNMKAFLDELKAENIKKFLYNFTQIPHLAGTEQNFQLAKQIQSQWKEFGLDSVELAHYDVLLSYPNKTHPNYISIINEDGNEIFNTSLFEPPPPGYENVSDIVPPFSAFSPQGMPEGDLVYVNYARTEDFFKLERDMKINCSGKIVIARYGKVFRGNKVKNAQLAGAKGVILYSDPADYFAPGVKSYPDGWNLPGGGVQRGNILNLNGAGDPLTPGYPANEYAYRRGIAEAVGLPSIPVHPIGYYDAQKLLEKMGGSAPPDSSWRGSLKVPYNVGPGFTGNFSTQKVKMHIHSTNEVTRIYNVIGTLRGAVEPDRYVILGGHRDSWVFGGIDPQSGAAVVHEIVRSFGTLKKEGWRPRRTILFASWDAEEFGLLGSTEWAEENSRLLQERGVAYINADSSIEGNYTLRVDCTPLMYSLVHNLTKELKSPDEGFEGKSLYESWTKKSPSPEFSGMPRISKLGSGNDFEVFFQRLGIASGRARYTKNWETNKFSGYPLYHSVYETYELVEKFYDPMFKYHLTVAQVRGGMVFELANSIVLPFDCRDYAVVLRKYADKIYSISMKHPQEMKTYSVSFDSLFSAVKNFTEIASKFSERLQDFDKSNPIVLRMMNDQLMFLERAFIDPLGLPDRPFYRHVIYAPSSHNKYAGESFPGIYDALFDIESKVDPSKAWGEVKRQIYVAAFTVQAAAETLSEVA
Protocol: The PSMA inhibitory activity of 1, 2 and DKFZ-PSMA-11 and the corresponding natural Ga-labeled analogs Ga-1 and Ga-2 were determined using a fluorescence-based assay according to a previously reported procedure (Banerjee et al. (2011) Angewandte Chemie 50, 9167-70) (Table 1). Briefly, lysates of LNCaP cell extracts (25 μL) were incubated with the inhibitor (12.5 μL) in the presence of 4 μM N-acetylaspartylglutamate (NAAG) (12.5 μL) for 2 h. The amount of the glutamate released by NAAG hydrolysis was measured by incubating with a working solution (50 μL) of the Amplex Red Glutamic Acid Kit (Life Technologies, Grand Island, N.Y.) for 1 h.
Fluorescence was measured with a VICTOR3V multilabel plate reader (Perkin Elmer Inc., Waltham, Mass.) with excitation at 490 nm and emission at 642 nm. Inhibition curves were determined using semi-log plots and IC50 values were determined at the concentration at which enzyme activity was inhibited by 50%. Enzyme inhibitory constants (Ki values) were generated using the Cheng-Prusoff conversion (Cheng et al. (1973) Biochemical pharmacology 22, 3099-108). Assays were performed in triplicate. Data analysis was performed using GraphPad Prism version 4.00 for Windows (GraphPad Software, San Diego, Calif.).

[1] = Hydrophilicity/lipophilicity judged from HPLC retention (RP C8); type: physicochemical; details: based on HPLC retention time
[2] = chelating agent with gallium, cited from earlier work
[3] = tested on: PSMA+ PC3 PIP and PSMA− PC3 flu tumors; test: Tissue biodistribution in mice bearing PSMA+ PC3 PIP and PSMA− PC3 flu tumors; details: mouse, in vivo
[4] = tested on: PSMA+ PC3 PIP and PSMA− PC3 flu tumors
[5] = 1 h post-injection, mean ± SD, n = 4
[6] = 2 h post-injection, mean ± SD, n = 4
[7] = 3 h post-injection, mean ± SD, n = 4

SMILES: O=C(O)CCC(NC(=O)NC(CCCCNC(=O)CCCCCCC(=O)NCCCCC(NC(=O)C(Cc1ccccc1)NC(=O)C(Cc1ccccc1)NC(=O)CN1CCN(CC(=O)O)CCN(CC(=O)O)CCN(CC(=O)O)CC1)C(=O)O)C(=O)O)C(=O)O (centres unmarked) [Compound 1]
pKi (PSMA): 9.15

SMILES: O=C(O)CCC(NC(=O)NC(CCCCNC(=O)CCCCCCC(=O)NC(CCCCNC(=S)Nc1ccc(CC2CN(CC(=O)O)CCN(CC(=O)O)CCN2CC(=O)O)cc1)C(=O)O)C(=O)O)C(=O)O (centres unmarked) [Compound 2]
pKi (PSMA): 9.09

PSMA-binding affinity relative to Ga-1 and Ga-2 (PSMA): ten-fold higher
pKi (PSMA): 10.52
SMILES: O=C(O)CCc1ccc(O)c(CN(CCN(CC(=O)O)Cc2cc(CCC(=O)NCCCCCC(=O)NCCCC[C@H](NC(=O)N[C@@H](CCC(=O)O)C(=O)O)C(=O)O)ccc2O)CC(=O)O)c1 [DKFZ-PSMA-11, Glu-urea-Lys-(Ahx)-HBED-CC, reference compound]
hydrophilicity/lipophilicity rank in the series [1]: least hydrophilic; also recorded: most lipophilic

SMILES: O=C(O)CN1CCN(CC(=O)O)CCN(CC(=O)O)CCN(CC(=O)O)CC1 [DOTA, 1,4,7,10-tetraazacyclododecane-1,4,7,10-tetraacetic acid]
stability constant, KML, for 68Ga ([2]; the values are: log stability constant): 21.3

SMILES: O=C([O-])CN1CCN(CC(=O)[O-])CCN(CC(=O)NC(Cc2ccccc2)C(=O)NC(Cc2ccccc2)C(=O)NC(CCCCNC(=O)CCCCCCC(=O)NCCCCC(NC(=O)NC(CCC(=O)O)C(=O)O)C(=O)O)C(=O)O)CCN(CC(=O)[O-])CC1.[Ga+3] (centres unmarked) [Ga-1]
pKi (PSMA): 9.48

SMILES: O=C([O-])CN1CCN(CC(=O)[O-])CC(Cc2ccc(NC(=S)NCCCCC(NC(=O)CCCCCCC(=O)NCCCCC(NC(=O)NC(CCC(=O)O)C(=O)O)C(=O)O)C(=O)O)cc2)N(CC(=O)[O-])CC1.[Ga+3] (centres unmarked) [Ga-2]
pKi (PSMA): 9.42

SMILES: O=C([O-])CN(CCN(CC(=O)[O-])Cc1cc(CCC(=O)NCCCCCC(=O)NCCCCC(NC(=O)NC(CCC(=O)O)C(=O)O)C(=O)O)ccc1[O-])Cc1cc(CCC(=O)O)ccc1[O-].[Ga+3] (centres unmarked) [Ga-DKFZ-PSMA-11]
hydrophilicity/lipophilicity rank in the series [1]: most hydrophilic

SMILES: O=C(O)CN1CCN(CC(=O)O)CCN(CC(=O)O)CC1 [NOTA, 1,4,7-triazacyclononane-1,4,7-trisacetic acid]
stability constant, KML, for 68Ga [2]: 31.1

SMILES: O=C([O-])CN1CCN(CC(=O)[O-])CC(Cc2ccc(NC(=S)NCCCCC(NC(=O)CCCCCCC(=O)NCCCCC(NC(=O)NC(CCC(=O)O)C(=O)O)C(=O)O)C(=O)O)cc2)N(CC(=O)[O-])CC1.[68Ga+3] (centres unmarked) [^68Ga-2]
rate of clearance from tissues, comparison of the three radiotracers [3]: fastest rate of clearance from all tissues

SMILES: O=C([O-])CN(CCN(CC(=O)[O-])Cc1cc(CCC(=O)NCCCCCC(=O)NCCCCC(NC(=O)NC(CCC(=O)O)C(=O)O)C(=O)O)ccc1[O-])Cc1cc(CCC(=O)O)ccc1[O-].[68Ga+3] (centres unmarked) [^68Ga-DKFZ-PSMA-11, reference compound]
PSMA+ PC3 PIP-to-PSMA− PC3 flu ratio ([4]; 1 h post-injection): 46.62±7.57
PIP:blood ratio [4, 5]: 35.45 ± 13.43
PIP:flu (PSMA+ PC3 PIP-to-PSMA− PC3 flu tumor uptake ratio) [4, 5]: 46.62 ± 17.57
PSMA+ PC3 PIP tumor uptake [4, 5]: 25.96 ± 9.69 % ID/g
PSMA− PC3 flu tumor uptake [4, 5]: 0.57 ± 0.14 % ID/g
blood uptake [4, 5]: 0.75 ± 0.20 % ID/g
heart uptake [4, 5]: 0.42 ± 0.16 % ID/g
kidney uptake [4, 5]: 133.24 ± 21.08 % ID/g
liver uptake [4, 5]: 0.75 ± 0.19 % ID/g
lung uptake [4, 5]: 2.21 ± 0.48 % ID/g
muscle uptake [4, 5]: 0.32 ± 0.12 % ID/g
salivary gland uptake [4, 5]: 1.42 ± 0.33 % ID/g
small intestine uptake [4, 5]: 0.39 ± 0.09 % ID/g
spleen uptake [4, 5]: 12.35 ± 3.75 % ID/g
PSMA+ PC3 PIP-to-PSMA− PC3 flu ratio ([4]; 2 h post-injection): 57.68±27.10
PIP:blood ratio [4, 6]: 51.88 ± 10.82
PIP:flu (PSMA+ PC3 PIP-to-PSMA− PC3 flu tumor uptake ratio) [4, 6]: 57.68 ± 27.10
PIP:kidney ratio [4, 6]: 0.24 ± 0.04
PSMA+ PC3 PIP tumor uptake [4, 6]: 21.08 ± 1.17 % ID/g
PSMA− PC3 flu tumor uptake [4, 6]: 0.41 ± 0.17 % ID/g
blood uptake [4, 6]: 0.41 ± 0.06 % ID/g
heart uptake [4, 6]: 0.28 ± 0.06 % ID/g
kidney uptake [4, 6]: 88.56 ± 20.09 % ID/g
liver uptake [4, 6]: 0.33 ± 0.05 % ID/g
lung uptake [4, 6]: 2.07 ± 0.68 % ID/g
muscle uptake [4, 6]: 0.19 ± 0.09 % ID/g
salivary gland uptake [4, 6]: 1.02 ± 0.22 % ID/g
small intestine uptake [4, 6]: 0.19 ± 0.07 % ID/g
spleen uptake [4, 6]: 8.87 ± 1.50 % ID/g
PSMA+ PC3 PIP-to-PSMA− PC3 flu ratio ([4]; 3 h post-injection): 110.57±21.27
PIP:blood ratio [4, 7]: 79.55 ± 9.83
PIP:kidney ratio [4, 7]: 0.22 ± 0.04
PIP:salivary gland ratio [4, 7]: 31.40 ± 4.85
PSMA+ PC3 PIP tumor uptake [4, 7]: 26.86±5.59 % ID/g
PSMA− PC3 flu tumor uptake [4, 7]: 0.25 ± 0.07 % ID/g
blood uptake [4, 7]: 0.34 ± 0.06 % ID/g
heart uptake [4, 7]: 0.20 ± 0.04 % ID/g
kidney uptake [4, 7]: 119.54 ± 15.49 % ID/g
liver uptake [4, 7]: 0.38 ± 0.15 % ID/g
lung uptake [4, 7]: 1.26 ± 0.20 % ID/g
muscle uptake [4, 7]: 0.14 ± 0.02 % ID/g
salivary gland uptake [4, 7]: 0.86 ± 0.12 % ID/g
small intestine uptake [4, 7]: 0.17 ± 0.06 % ID/g
spleen uptake [4, 7]: 7.18 ± 2.25 % ID/g
spleen uptake, comparison with ^68Ga-1 or ^68Ga-2 ([4]; all time-points, P<0.04): higher spleen uptake
salivary gland uptake, comparison with ^68Ga-1 and ^68Ga-2 ([4]; up to 3 h after injection, P<0.001): significantly higher salivary gland uptake
uptake and retention in normal tissues (kidney, blood, spleen, salivary glands, PSMA-negative PC3 flu tumors), comparison ([4]; up to 3 h post-injection): highest uptake and retention
hydrophilicity/lipophilicity rank in the series [1]: most hydrophilic
